# From patent EP0752872B1, “NADH OXIDASE AS A TARGET IN DIAGNOSIS AND THERAPY” (Morré, D. James, priority 1994, dated 1995)
# Experiments:
# [1] = system: plasma membrane NADH oxidase; assay: Spectrophotometric NADH oxidase assay, rat liver plasma membranes (normal cells); assay type: biochemical; settings: for response of the NADH oxidase activity (in words): in the presence of Mg^2+
# Experimental: Purification of plasma membranes from rat liver. A 5000 x g pellet from the preparation of Golgi apparatus (Morré (1971) Meth. Enzymol. 22, 130-148) was the starting material. The fluffy layer which contains the Golgi apparatus fraction was mixed, withdrawn and excluded from the plasma membrane preparations. Cold 1 mM NaHCO3 (5 ml) was added to each tube and the friable yellow-brown upper part of the pellet was resuspended with a pen-brush, leaving the reddish tightly packed bottom part of the pellet undisturbed. The resuspended material was homogenized in aliquots of 5 ml each in a 30 ml stainless steel homogenizer (Duragrind) 20 times by hand. The homogenates were combined, diluted with cold 1 mM NaHCO3 (1:1 dilution), and centrifuged at 6000 x g in a HB rotor for 15 min. The supernatant was discarded and the pellet was used for the two-phase separation (Morré & Morré (1989) BioTechniques 7:946-958).
# The two-phase system contained 6.4% (w/w) Dextran T-500 (Pharmacia), 6.4% (w/w) polyethylene glycol) 3350 (Fisher), and 5 mM potassium phosphate buffer (pH 7.2) (Morré & Morré, 1989, supra). The homogenate (1 g) was added to the two-phase system and the weight of the system was brought to 8 g with distilled water. The tubes were inverted vigorously for 40 times in the cold (4°C). The phases were separated by centrifugation at 750 rpm (150 x g) in a Sorvall HB 4 rotor for 5 min. The upper phases were carefully withdrawn with a pasteur pipette, divided in half and transferred into 40 ml plastic centrifuge tubes and diluted with cold 1 mM NaHCO3. The purified plasma membranes were collected by centrifugation at 10,000 x g in a HB rotor for 30 min. Plasma membrane pellets were resuspended in 50 mM Tris-Mes buffer (pH 7.2) and stored at -70°C. Proteins were determined using the bicinchoninic acid (BCA) assay (Smith et al. (1985) Anal. Biochem. […]: 76-85) with bovine serum albumin as standard.
# (§1) Spectrophometric assay of NADH oxidase. NADH oxidase activity was determined as the disappearance of NADH measured at 340 nm in a reaction mixture containing 25 mM Tris-MES buffer (pH 7.2), 1 mM KCN to inhibit the low levels of contaminating mitochondrial oxidase activity, and 150 µM NADH at 37°C with constant stirring. Activity was measured using a Hitachi U3210 spectrophotometer with continuous recording over two intervals of 5 min each. A millimolar extinction coefficient of 6.22 was used to determine specific activity.
# [2] = system: Protein disulfide-thiol interchange activity of HeLa plasma membrane; assay: Protein disulfide-thiol interchange (RNAse activity with cCMP as substrate); assay type: biochemical, human; settings: None 1.6
# Experimental: Estimation of protein disulfide isomerase- (PDI) like activity. Two methods were employed to determine PDI or PDI-like activity.
# (§2) In the first method, ribonuclease A activity was measured using a spectrophotometric assay based on cCMP as RNAse substrate. Scrambled RNAse (90.363 mg) was incubated together with 0.45 mM cCMP in 50 Mm Tris-MES buffer, pH 6.5, at 30°C in a final volume of 3 ml. […] A variation of this assay was to preincubate scrambled RNAse with transitional endoplasmic reticulum for 20 min in the presence or absence of 1 µM all-trans retinol (using ethanol as control) and in the presence or absence of 1 µM reduced or oxidized glutathione or a mixture of both. After this 20 min of "reactivation" of RNAse, cCMP was added to a final concentration of 0.45 mM to initiate the reaction. The increase of the absorbance at 296 nm was recorded over 25 min and the concentrations of cCMP were determined (E = 0.19 mM^-1cm^-1). Spectrophotometric measurements were with a Hitachi U3210 spectrophotometer with a thermostatic cell compartment maintained at 30°C with continuous stirring.
# Preparation of scrambled RNAse substrate. To prepare the oxidized, denatured RNAse substrate (scrambled RNAse), native RNAse A (Sigma, Type 1-AS from bovine pancreas) (30 µg/ml) was incubated 1 h at 35°C in 50 mM Tris-acetate, pH 8.6, containing 9 M urea and 130 mM DTT.
# Protein concentration was estimated from spectrophotometric measurement at 280 nm using native RNAse A as standard. For preparation of scrambled RNAse, the reduced RNAse was diluted to 0.5 mg/ml with 0.1 M acetic acid. Solid urea was then added to a final concentration of 10 M after which 0.1 M sarcosine hydrochloride was added and the pH adjusted to 8.5 with 1 M Tris. The mixture then was incubated in the dark for 2-3 days during which time the protein was randomly oxidized. The scrambled product was recovered by acidification to pH 4 with glacial acetic acid and elution from Sephadex G-25 in 0.1 M acetic acid. Fractions containing protein were pooled, adjusted to pH 8 and stored at 4°C.
# [3] = system: protein disulfide-thiol interchange of HeLa plasma membranes; assay: Protein disulfide-thiol interchange (restoration of scrambled RNAse activity, yeast RNA hydrolysis method); assay type: biochemical, human; settings: for protein disulfide-thiol interchange, I: column I; for protein disulfide-thiol interchange, II: column II; for protein disulfide-thiol interchange, III: column III
# Experimental: Estimation of protein disulfide isomerase- (PDI) like activity. Two methods were employed to determine PDI or PDI-like activity. […] For the assay, 100 µl was transferred to each of 4 tubes. Yeast RNA (100 µl, 0.33 mg/ml, pH 5.0) was added. After 0 min and 10 min, the reaction was stopped by the addition of 100 µl of 25% percholoric acid containing 0.75% uranyl acetate. The tubes were cooled in an ice bath for 5 min and clarified by centrifugation (2 min, microfuge). The 75 µl of the clear supernatant was diluted to 3.0 ml with water. The absorbance was measured at […] against an unincubated blank. […] To prepare the oxidized, denatured RNAse substrate (scrambled RNAse), native RNAse A (Sigma, Type 1-AS from bovine pancreas) (30 µg/ml) was incubated 1 h at 35°C in 50 mM Tris-acetate, pH 8.6, containing 9 M urea and 130 mM DTT. […] Protein concentration was estimated from spectrophotometric measurement at 280 nm using native RNAse A as standard. For preparation of scrambled RNAse, the reduced RNAse was diluted to 0.5 mg/ml with 0.1 M acetic acid. […] The scrambled product was recovered by acidification to pH 4 with glacial acetic acid and elution from Sephadex G-25 in 0.1 M acetic acid. Fractions containing protein were pooled, adjusted to pH 8 and stored at 4°C.
# [4] = system: circulating NADH oxidase in the serum; assay: NADH oxidase activity of human serum; assay type: biochemical; settings: normal human serum
# Experimental: as §1
# native RNAse = molecular target: T1, native RNAse (Bos taurus, UniProt P61823); assay: Activity of native RNAse; assay type: biochemical, bovine; settings: sulfonylurea 1 µM; for activity of native RNAse, pH 6.0: None 0.15; for activity of native RNAse, pH 6.8: None 0.21
# T1 construct: native RNAse A (Sigma, Type 1-AS from bovine pancreas); purchased Sigma Type 1-AS; host or cells: bovine pancreas
# T1 sequence (P61823 27-150): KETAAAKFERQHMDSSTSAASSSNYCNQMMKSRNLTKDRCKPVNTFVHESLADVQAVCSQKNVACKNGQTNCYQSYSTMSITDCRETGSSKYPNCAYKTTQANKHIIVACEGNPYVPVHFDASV
# Experimental: as §2, with “substrate.” for “substrate. Scrambled RNAse (90.363 mg) was incubated together with 0.45 mM cCMP in 50 Mm Tris-MES buffer, pH 6.5, at 30°C in a final volume of 3 ml.”, “[…] […]” for “A variation of this assay was to preincubate scrambled RNAse with transitional endoplasmic”
# [5] = system: NADH oxidase activity of culture medium with HeLa cells; assay: NADH oxidase activity of culture medium with HeLa cells; assay type: biochemical, human
# Experimental: As is characteristic of many ectoproteins of the mammalian cell surface, an NADH oxidase activity is present in the serum and in HeLa cell culture filtrate. The NADH oxidase activity of culture medium with HeLa cells is proportional to time of incubation and to the amount of medium added. […] The activity is inhibited by 85°C for 20 min, trypsin, N-ethyl maleimide and PCMB, and guanosine nucleotides. These activities have properties similar to those of the plasma membrane-bound form. The circulating form appears to have a lower molecular weight (ca. 32 kD) than the membrane-bound form. The circulating NADH oxidase in the serum of cancer patients is inhibited by adriamycin whereas the circulating NADH oxidase in the serum of healthy individuals is not. Further details from this observation are found in the examples.
# HeLa cells = assay: Growth of HeLa cells in culture; assay type: cell-based, human
# Experimental: Growth of cells. HeLa cells (ATCC CCL2), were grown in 150 cm^2 flasks in Minimal Essential Medium (Gibco), pH 7.4. at 37°C with 10% bovine calf serum (heat-inactivated), plus 50 mg/l gentamycin sulfate (Sigma). Cells were trypsinized with Sigma IX trypsin for 1 to 2 min, harvested by scraping and taken up in TD-tris buffer (140 mM NaCl, 5 mM KCl, 0.7 mM Na2HPO4 and 25 mM Tris, pH 7.4) to a final cell concentration of 0.1 g wet weight (gww) per ml.
# The number of cells initially plated was subtracted. The results were averages from duplicate experiments.
# [6] = substance alone, thiol addition 1 µM, none 0.11
# [7] = substance alone, thiol addition 1 µM, none 0.047
# [8] = biphasic response, read-out: Km at low NADH concentrations
molecule,measurement,setting,value
CC1=CC(=O)[C@@H](O)[C@]2(C)[C@H]3[C@@]4(O)OC[C@]35[C@H]([C@@H](C)[C@H]4O)[C@@H](O)C(=O)O[C@@H]5C[C@@H]12 [(-)-glaucarubolone],IC50,"[1]; liver plasma membranes, Figure 3, read-out: final concentration at which the activity was 50% inhibited",~1 nM
Nc1nc2c(ncn2[C@@H]2O[C@H](COP(=O)(O)OP(=O)(O)O)[C@@H](O)[C@H]2O)c(=O)[nH]1 [GDP],response of the NADH oxidase activity (in words),[1],inhibited
"N[C@@H](CCC(=O)N[C@@H](CS)C(=O)NCC(=O)O)C(=O)O [GSH, reduced glutathione]",Protein disulfide-thiol interchange activity,"[2]; thiol treatment, concentration not given",2.1 nmoles/min/mg protein
same,"protein disulfide-thiol interchange, I",[3]; [6],0.06 0.D./10 min
same,"protein disulfide-thiol interchange, II",[3]; [7],0.06 0.D./10 min
same,"protein disulfide-thiol interchange, III","[3]; substance alone, thiol addition 1 µM, none 0.021",0.041 0.D./10 min
Nc1nc2c(ncn2[C@@H]2O[C@H](COP(=O)(O)OP(=O)(O)OP(O)(O)=S)[C@@H](O)[C@H]2O)c(=O)[nH]1 [GTP [γ-S]],response of the NADH oxidase activity (in words),[1],inhibited
Nc1nc2c(ncn2[C@@H]2O[C@H](COP(=O)(O)OP(=O)(O)OP(=O)(O)O)[C@@H](O)[C@H]2O)c(=O)[nH]1 [GTP],inhibition of NADH oxidase activity (in words),[4],inhibited
"Cc1ccc(S(=O)(=O)NC(=O)Nc2ccc(Cl)cc2)cc1 [LY181984, N-(4-methylphenylsulfonyl)-N'-(4-chlorophenyl) urea]",Protein disulfide-thiol interchange activity,[2]; treatment at 1 µM,1.0 nmoles/min/mg protein
same,"activity of native RNAse, pH 6.0",native RNAse,0.14 µmol/mg/min
same,"activity of native RNAse, pH 6.8",native RNAse,0.21 µmol/mg/min
same,"protein disulfide-thiol interchange, I",[3]; [6],0.076 0.D./10 min
same,"protein disulfide-thiol interchange, I",[3]; sulfonylurea with GSH 1 µM,0.056 0.D./10 min
same,"protein disulfide-thiol interchange, I",[3]; sulfonylurea with GSSG 1 µM,0.044 0.D./10 min
same,"protein disulfide-thiol interchange, II",[3]; [7],0.049 0.D./10 min
same,"protein disulfide-thiol interchange, II",[3]; sulfonylurea with GSH 1 µM,0.03 0.D./10 min
same,"protein disulfide-thiol interchange, II",[3]; sulfonylurea with GSSG 1 µM,0.04 0.D./10 min
same,"protein disulfide-thiol interchange, III",[3]; sulfonylurea with GSH 1 µM,0.018 0.D./10 min
same,"protein disulfide-thiol interchange, III",[3]; sulfonylurea with GSSG 1 µM,0.016 0.D./10 min
same,inhibition of protein disulfide isomerase-like activity (in words),[3]; plasma membrane vesicles isolated from HeLa cells,inhibited the activity
"Cc1ccc(S(=O)(=O)NC(=O)Nc2ccccc2)cc1 [LY181985, N-(4-methylphenylsulfonyl)-N'-(phenyl)urea]","activity of native RNAse, pH 6.0",native RNAse,0.15 µmol/mg/min
same,"activity of native RNAse, pH 6.8",native RNAse,0.21 µmol/mg/min
CCN1C(=O)C=CC1=O [N-ethyl maleimide],inhibition of NADH oxidase activity (in words),[4],inhibited
same,inhibition of NADH oxidase activity (in words),[5],inhibited
"NC(=O)C1=CN([C@@H]2O[C@H](COP(=O)(O)OP(=O)(O)OC[C@H]3O[C@@H](n4cnc5c(N)ncnc54)[C@H](O)[C@@H]3O)[C@@H](O)[C@H]2O)C=CC1 [NADH, reduced pyridine nucleotide]",Km,[4]; [8],25 µM
same,Km,[5]; [8],15 µM
"O=C(O)c1cc[c]([Hg][Cl])cc1 [PCMB, p-chloromercuribenzoate]",inhibition of NADH oxidase activity (in words),[4],inhibited
same,inhibition of NADH oxidase activity (in words),[5],inhibited
"Nc1ccc(Cl)cc1 [free chloroaniline, chloroaniline]",inhibition of growth of HeLa cells (in words),HeLa cells,inactive
aluminum fluoride,response of the hormone- and growth-stimulated NADH oxidase (in words),[1],weakly inhibitory
mastoparan,response of the hormone- and growth-stimulated NADH oxidase (in words),[1],activated
